We go through three compounds from patent publication US20220227720A1, “DHODH INHIBITORS AND THEIR USE AS ANTIVIRAL AGENTS” (priority 2019, published 2022).

As usually defined, the IC50 is the concentration that inhibits the measured activity by half. A word on the fraction unbound: it is the share of the substance not bound to proteins or other matrix. The CC50 is the concentration that lowers cell viability or growth by half. By logD is commonly meant lipophilicity at a set pH, counting ionised and neutral species. As usually defined, the solubility is the concentration that dissolves in the medium under given conditions.

The structures appear in SMILES notation. Converted amounts (≈) assume the structure as drawn. Like-named read-outs stand apart in the source and are kept apart here.

Data set [1] has as its system VEEV. The data set can be described thus: microbe, parasite or virus in culture. To be noted: Venezuelan equine encephalitis virus, L929, in Mus musculus, read-out: IC50 VEEV. The format is cell-based.
For data set [2], the system named is RVFV. The data set can be described thus: microbe, parasite or virus in culture. To be noted: Rift Valley fever virus, Vero C1008, read-out: IC50 RVFV. The format is cell-based.
For data set [3], the system named is RVFV. Kind of data set: microbe, parasite or virus in culture. Particulars: Rift Valley fever virus, L929, in Mus musculus, read-out: IC50 RVFV. The format is cell-based.
The nature of data set [4]: Hydrolysis study in mouse liver extract. To be noted: FIG. 1, FIG. 2.
Data set [5] concerns TBEV. The data set can be described thus: microbe, parasite or virus in culture. The format is cell-based. Particulars: Tick-borne encephalitis virus, SW13, read-out: IC50 TBEV.
Data set [6] deals with TBEV. Kind of data set: microbe, parasite or virus in culture. The format is cell-based. Particulars: Tick-borne encephalitis virus, L929, in Mus musculus, read-out: IC50 TBEV.
Another data set has as its system TOSV. The data set can be described thus: microbe, parasite or virus in culture. The format is cell-based, Toscana virus. To be noted: Toscana virus, Vero C1008, read-out: IC50 (TOSV).
Another data set concerns TAHV. The data set can be described thus: microbe, parasite or virus in culture. The format is cell-based. To be noted: Tahyna virus, Vero C1008, read-out: IC50 TAHV.
Data set [7] has as its system RVFV. The data set can be described thus: microbe, parasite or virus in culture. The format is cell-based. To be noted: Rift Valley fever virus, SW13, read-out: IC50 RVFV.
For a further data set, the system named is HAZV. The data set can be described thus: microbe, parasite or virus in culture. The format is cell-based. To be noted: Hazara virus, Vero C1008, read-out: IC50 HAZV.
Data set [8] concerns TBEV. The data set can be described thus: microbe, parasite or virus in culture. The format is cell-based. To be noted: Tick-borne encephalitis virus, Vero C1008, read-out: IC50 TBEV.
Data set [9] concerns YFV. Kind of data set: microbe, parasite or virus in culture. The format is cell-based. To be noted: Yellow fever virus, Vero C1008, read-out: IC50 YFV.
For data set [10], the system named is RVFV. Kind of data set: microbe, parasite or virus in culture. The format is cell-based. Particulars: Rift Valley fever virus, HEK293, read-out: IC50 RVFV.
In data set [11] the test system is VEEV. Kind of data set: microbe, parasite or virus in culture. Particulars: Venezuelan equine encephalitis virus, SW13, read-out: IC50 VEEV. The format is cell-based.
For another data set, the system named is DENV. Kind of data set: Virus yield reduction assay, DENV in Vero E6 cells. The format is cell-based. Particulars: Dengue virus, Vero C1008; Simian Vero E6 cells; FLAVI virus family.
The nature of a further data set: Plasma protein binding. To be noted: mouse, plasma diluted with 1 volume of PBS pH 7.4, pH 7.4.
For the next data set, the system named is ZIKV. The data set can be described thus: Virus yield reduction assay, ZIKV in Vero E6 cells. The format is cell-based. Particulars: Zika virus, Vero C1008; Simian Vero E6 cells; FLAVI virus family.
The nature of data set [12]: Cytotoxicity assay (CellTiter-Blue), Vero E6 cells. To be noted: monkey (simian), Vero E6 cells, CC50, Simian Vero E6 cells; value repeated under each virus. For orientation: The colour change of resazurin is a common sign of viable cells or microbes.
Data set [13] in a line: Log D (PBS pH 7.4/octanol).
A short description of a further data set: Plasma stability. To be noted: 1 μm, 37° C., mouse plasma diluted with 1 volume of PBS pH 7.4.
Data set [14] has as its system VEEV. Kind of data set: microbe, parasite or virus in culture. The format is cell-based. Particulars: Venezuelan equine encephalitis virus, Vero C1008, read-out: IC50 VEEV.
The nature of the next data set: Solubility in PBS pH 7.4. Particulars: PBS pH 7.4, 20 °C, pH 7.4, aqueous buffer.
Data set [15] concerns VEEV. Kind of data set: microbe, parasite or virus in culture. The format is cell-based. Particulars: Venezuelan equine encephalitis virus, HEK293, read-out: IC50 VEEV.
Data set [16] deals with RVFV. The data set can be described thus: microbe, parasite or virus in culture. The format is cell-based. To be noted: Rift Valley fever virus, BHK-21, in Mesocricetus auratus, read-out: IC50 RVFV.
A short description of data set [17]: Cytotoxicity assay (CellTiter-Blue), HEK-293 cells. Particulars: human.
Data set [18] in a line: Cytotoxicity assay, L929 cells. To be noted: mouse.
Data set [19] is described as follows: Cytotoxicity assay, BHK-21 cells. To be noted: hamster, BHK-21 cells, CC50, Hamster BHK-21 cells; value repeated under each virus.
Data set [20] has as its system VEEV. Kind of data set: microbe, parasite or virus in culture. The format is cell-based. To be noted: Venezuelan equine encephalitis virus, BHK-21, in Mesocricetus auratus, read-out: IC50 VEEV.
A short description of data set [21]: Cytotoxicity assay, SW13 cells. To be noted: human.
Data set [22] in a line: Hepatic microsome stability. To be noted: 1 μm, 37° C., 0.5 mg/mL microsomes of mouse liver; cofactor: NADPH.
Data set [23] relates to TBEV. The data set can be described thus: microbe, parasite or virus in culture. The format is cell-based. Particulars: Tick-borne encephalitis virus, HEK293, read-out: IC50 TBEV.
A further data set has as its system BHK-21. Kind of data set: Cytotoxicity assay, BHK-21 cells. Particulars: Hamster BHK-21 cells; value repeated under each virus.
In data set [24] the test system is YFV. Kind of data set: microbe, parasite or virus in culture. The format is cell-based. To be noted: Yellow fever virus, BHK-21, in Mesocricetus auratus, read-out: IC50 YFV.

For the compound `CCC(C)c1ccccc1OCCCC(=O)Nc1ccccc1C(=O)O` (racemic) [Example 3], the IC50 was determined as 600 nM in the data set on VEEV [1]; 160 nM with RVFV [2]; 170 nM in the data set with RVFV [3]; 100 nM in the data set on TBEV [5]; 300 nM in the data set on TBEV [6]; 70 ± 10 nM in the data set with TOSV. Also, the concentration for half-maximal inhibition (IC50) in the data set on TAHV was determined as 40 nM; in the data set on RVFV [7], 50 nM; in the data set on HAZV, 110 nM; in the data set on TBEV [8], 80 nM; with YFV [9], 110 nM; in the data set on RVFV [10] it was 15 nM. Besides, the IC50 with VEEV [11] was found to be 130 nM; in the data set with DENV it was 110 nM; in the data set on ZIKV, 110 nM; in the data set with VEEV [14], 30 nM; with VEEV [15], 50 nM. Besides, in data set [4], the “Hydrolysis in mouse liver extract (amide bond stability)” value is “cleavage of the amide bond”. The same compound returned a free fraction (fraction unbound) at 1 μM in “Plasma protein binding” of 0.01. In data set [12], the 50% cytotoxic concentration (CC50) at 4 days stood at 18500 ± 1500 nM. Also, the pH-dependent lipophilicity (logD) in data set [13] was 2.59 ± 0.03. In addition, the “Plasma stability [% remaining at 2 h]” value in the data set “Plasma stability” worked out at 85 ± 4 % remaining at 2 h. For the same compound, in the data set “Solubility in PBS pH 7.4”, the solubility is 1540 ± 50 µM (≈ 547 µg/mL).

Consider `Cc1ccc(NC(=O)COc2ccccc2Cc2ccccc2)c(C(=O)O)c1` [Example 1], for which the IC50 with RVFV [2] was determined as 90 nM; in the data set with RVFV [16], 700 ± 30 nM; in the data set on RVFV [3] it was 40 nM; in the data set with TBEV [5] it was 670 nM; in the data set with TBEV [6], 80 nM; in the data set with TOSV it was 90 nM. The concentration for half-maximal inhibition (IC50) was found to be 170 nM with TAHV; 280 nM with RVFV [7]; 50 nM in the data set on HAZV; 220 nM in the data set on TBEV [8]; 200 nM in the data set on YFV [9]; 40 ± 20 nM with RVFV [10]. Further, the IC50 came to 100 nM with VEEV [11], 190 nM with DENV, 360 nM in the data set on VEEV [20] and 70 nM in the data set on VEEV [14]. Further, in data set [17], it took 80000 nM to reach half-maximal cytotoxicity (CC50 at 3 days). Also, the fraction unbound at 1 μM in “Plasma protein binding” turned out to be 0.01. Besides, in data set [12], the CC50 at 4 days stood at 60000 ± 15000 nM. In addition, the cytotoxic concentration (CC50) in data set [18] was found to be 60000 nM; in data set [19] it was 140000 nM; in data set [21] it was 60000 nM. The compound also displayed a logD in data set [13] of 2.62 ± 0.03. The “Plasma stability [% remaining at 2 h]” value in “Plasma stability” worked out at 75 ± 0 % remaining at 2 h. Besides, the solubility in the data set “Solubility in PBS pH 7.4” worked out at 167 ± 7 µM (≈ 62.7 µg/mL).

With `CCCCCc1ccc(C#Cc2ccc(NC(=O)C(C)C)c(C(=O)O)c2)cc1` [Example 9, 2-Isobutyramido-5-((4-pentylphenyl)ethynyl)benzoic acid], the “Hepatic microsome stability [% remaining at 1 h]” value in [22] is listed as 45 ± 8 % remaining at 1 h. In addition, the 50% inhibitory concentration (IC50) in the data set with RVFV [2] was determined as 10 nM; in the data set with RVFV [16], 43 nM; in the data set on TBEV [5], 14 nM; with TOSV, 10 nM; in the data set with RVFV [7], 11 nM; with HAZV it was 12 nM. Also, the IC50 was 11.7 nM in the data set on TBEV [8]; 16 nM with YFV [9]; < 1.6 nM with RVFV [10]; 14 nM in the data set with VEEV [11]; 23 nM in the data set with DENV; 23 nM with ZIKV. In addition, the half-maximal inhibitory concentration (IC50) with TBEV [23] amounted to 4.4 nM; in the data set on YFV [24], 55 nM; in the data set with VEEV [14], 10.7 nM; with VEEV [15] it was 1.5 nM. Also, the midpoint of cytotoxicity in data set [12], the CC50 at 4 days, lay at 4000 nM. Moreover, the CC50 worked out at 50000 nM in [19], 55000 nM in the data set with BHK-21 and 17000 nM in [21]. For the same compound, the “Plasma stability [% remaining at 2 h]” value in the data set “Plasma stability” is given as 98 ± 3 % remaining at 2 h. Besides, the solubility in “Solubility in PBS pH 7.4” is 13 ± 6 µM (≈ 4.91 µg/mL).
